Square brackets hold non-standard residues; d marks the D form. * marks the point of attachment. FITC = O=C1OC2(c3ccc(O)cc3Oc3cc(O)ccc32)c2ccc(NC(=S)*)cc21; pY = N[C@@H](Cc1ccc(OP(=O)(O)O)cc1)C(=O)O; Ahx = NCCCCCC(=O)O
Columns and labels:
[1] = system: Fer kinase domain; assay: pTyr-Var library bacterial peptide display kinase screen (enrichment scores); format: biochemical, mouse; details: sheet "Fer";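 note: log2 fold change in enrichment of variant over reference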
[2] = system: EPHB1 kinase domain; assay: as above; format: biochemical, human; details: for Screen: sheet EPHB1, effect of the variant peptide relative to its reference peptide in the pTyr-Var library screen (enrichment scores); for Screen (variant relative to reference peptide, measured in the pTyr-Var library screen): sheet "EPHB1", variant seq vs reference seq, bacterial peptide display enrichment
[3] = system: EPHB2 kinase domain; assay: as above; format: biochemical, human; details: sheet EPHB2;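 note: log2 fold change in enrichment of variant over reference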
[4] = target: T1, c-Src kinase domain (Homo sapiens, UniProt P12931); assay: as above; format: biochemical; details: sheet "Src"
[5] = target: T1, c-Src kinase domain; assay: RP-HPLC assay to measure peptide phosphorylation kinetics; format: biochemical; details: purified peptide substrate
[6] = target: T2, c-Abl kinase domain (Mus musculus, UniProt P00520); assay: as above; format: biochemical; details: purified peptide substrate
T2 sequence (P00520 242-493 limits assumed): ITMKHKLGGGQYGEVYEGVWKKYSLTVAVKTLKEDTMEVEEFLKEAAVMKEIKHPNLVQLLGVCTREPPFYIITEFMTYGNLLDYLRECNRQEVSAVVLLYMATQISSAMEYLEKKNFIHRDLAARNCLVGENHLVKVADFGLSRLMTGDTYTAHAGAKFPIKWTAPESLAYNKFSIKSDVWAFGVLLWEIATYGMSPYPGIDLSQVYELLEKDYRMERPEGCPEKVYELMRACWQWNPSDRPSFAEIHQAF

[7] = system: EPHB1 kinase domain; assay: ADP-Quest continuous fluorimetric kinase assay (initial rates of consensus peptides); format: biochemical, human; details: peptide 100 or 20 μM, kinase 10–50 nM; Figure 2C and supplement 2
From the text: A fluorescence-based assay from Eurofins (ADP Quest) was used to measure the Michaelis-Menten kinetic parameters for phosphorylation of the consensus peptides by purified tyrosine kinase domains. In this assay, ADP production as a result of kinase activity is coupled to the production of resorufin, a fluorophore that emits signal at 590 nm. For all experiments, the assay reactions were set up as described in the provided assay kit protocol, in a 384 well plate format. The peptide solutions were serially diluted in 100 mM Tris, pH 8.0, and the kinases were diluted to 50 nM in buffer (10 mM HEPES, 100 mM NaCl, 1 mM TCEP, 5 mM MgCl2, 10% (v/v) glycerol). The final reaction mixtures contained 10 nM of kinase with 100 μM of ATP. […] Phosphorylation reaction progress was monitored by measuring fluorescence at excitation 530 nm and emission 590 nm every 2 min at 37 °C on a plate reader (BioTek Synergy Neo 2). The fluorescence units (RFU) were converted to μM ADP by comparison to a standard curve, and the initial rates were extracted from the linear regime of the reaction progress curves. Initial rates were also measured for samples containing each kinase but lacking a peptide substrate, to account for background ATP hydrolysis. This background rate was subtracted from the rates measured in the presence of peptide. […]

[8] = target: T2, c-Abl kinase domain; assay: pTyr-Var library bacterial peptide display kinase screen (enrichment scores); format: biochemical; details: sheet "Abl"; effect of variant peptide relative to its reference peptide in pTyr-Var library screen (enrichment)
[9] = target: mouse c-Abl kinase domain (residues 232-502) (mouse) (UniProt P00520)
Chain of mouse c-Abl kinase domain (residues 232-502) (mouse) (P00520 232-502): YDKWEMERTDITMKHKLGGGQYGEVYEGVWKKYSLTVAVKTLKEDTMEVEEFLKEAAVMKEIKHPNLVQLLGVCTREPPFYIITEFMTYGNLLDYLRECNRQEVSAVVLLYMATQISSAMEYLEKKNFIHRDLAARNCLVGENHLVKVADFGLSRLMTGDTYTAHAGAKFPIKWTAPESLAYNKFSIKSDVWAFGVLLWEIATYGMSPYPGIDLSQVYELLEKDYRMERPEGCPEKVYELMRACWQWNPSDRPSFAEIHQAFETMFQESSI

[10] = target: human c-Src SH2 domain (residues 143-250) (human, UniProt P12931-1 143-250, biotin on the Avi tag (co-expression with the biotin ligase BirA)); assay: fluorescence polarisation; direct titration: varying concentrations of c-Src SH2 with 30 nM fluorescent peptide, 15 min; 60 mM HEPES pH 7.2, 75 mM KCl, 75 mM NaCl, 1 mM EDTA, 0.05% Tween 20; 25 °C; quadratic binding equation; details: both partners purified
[11] = value of the variant peptide against its reference peptide in the pTyr-Var library screen with Fer
[12] = effect of variant peptide relative to its reference peptide in the pTyr-Var library screen (enrichment scores)
[13] = effect of the variant peptide relative to its reference peptide in the pTyr-Var library screen
[14] = variant peptide versus its reference peptide in the pTyr-Var library screen
[15] = variant peptide relative to its reference peptide, pTyr-Var library screen enrichment
[16] = effect of the variant relative to its reference peptide in the pTyr-Var library screen

Work on ITNHIYTWVDP [DFNB31_Y234_V229I] yielded a Screen [1, 11] of -0.03067, a Screen [2] of 0.06659 and a Screen [3, 12] of -0.0087. The Screen [4, 13] was 0.3882.

With FNSLLYQVPTS [CALCOCO2_Y358_P357L] the Screen [1, 11] was 3.519, the Screen [2] was 4.751 and the Screen [3, 12] was 5.149. The Screen [4, 13] was 2.72.

Work on TQNAVYSAANF [DDX5_Y535_G533A_YF] yielded a Screen [1, 11] of 0.4164, a Screen [2] of 1.023 and a Screen [3, 12] of 1.01. The Screen [4, 13] was 0.6379.

TTSQLYDAMPI [PDPK1_Y9_V12M] was tested, and the Screen [1, 11] was -0.6658, the Screen [2] was -0.6854 and the Screen [3, 12] was -1.368. It also gave a Screen [4, 14] of -0.9144.

Ac-IGEGTYGQVFK-NH2 [CDK13_Y716_YF] was tested, and the “Phosphorylation Rate” value [5] was 3.100 s⁻¹.

For ITNLLYHVVGG [GBA_Y412_W417G], the Screen [1, 11] was -1.01, the Screen [2] was 0.07416 and the Screen [3, 12] was -0.0356. For the same molecule, the Screen [4, 13] was -0.2777.

With ADCRFYTFPQM [GAMT_Y223_A224T_YF] the Screen [1, 11] was -1.641, the Screen [2] was -1.572 and the Screen [3, 12] was -2.189.

In the case of AAAAVYTFLPD [MYORG_Y36_M35V], the Screen [1, 11] is reported as 0.8509, the Screen [2] is reported as 0.3532 and the Screen [3, 12] is reported as 0.71. The Screen [4, 14] was 0.6423.

LEDPMYDIIRD [RP9_Y142_H137L] gave a Screen [1, 15] of 0.5422, a Screen [2] of 0.4802 and a Screen [3, 12] of 0.7516. The Screen [4, 14] was 0.5395.

Ac-IGEGTYGTVFK-NH2 [CDK5-Y15] was tested, and the “Phosphorylation Rate” value [6] was 0.085 s⁻¹ and the “Phosphorylation Rate” value [5] was 2.587 s⁻¹.

In the case of “Ac-GPPEPNYEVIPPKKKG-NH2 [EPHB1 Consensus, EPHB1 consensus substrate peptide from X5-Y-X5 screen]”, the “phosphorylation of consensus peptide by EPHB1 (initial rate relative to cognate consensus)” value [7] is reported as “did not prefer”.

For NNDLCYWVLEL [IARS1_Y434_P437L], the Screen [2] was -1.633, the Screen [3, 12] was -2.3 and the Screen [4, 13] was 1.285.

DNEALYDICFC [TUBB3_Y208_R213C] was tested, and the Screen [1, 15] was 0.2993, the “Screen (variant relative to reference peptide, measured in the pTyr-Var library screen)” value [2] was -0.1227 and the Screen [3, 16] was 0.1536. For the same molecule, the Screen [4, 14] was 0.09389.

LDAFIYDAALL [GRIN2A_Y730_V734L] was tested, and the Screen [1, 11] was -0.3557, the Screen [2] was -0.2525 and the Screen [3, 12] was -0.3341. The Screen [4, 13] was 0.1286.

CFSSEYHFVGG [CTSC_Y345_Y340C_YF] was tested, and the Screen [2] was -0.7957, the Screen [3, 12] was -0.9567 and the Screen [4, 13] was -0.6697.

SNTFLYQLVFD [EXO1_Y284_N279S] gave a Screen [1, 11] of -0.008577, a Screen [2] of 0.05167 and a Screen [3, 12] of -0.053. The Screen [4, 13] was -0.03965.

In the case of RRIHSYRGFLW [VHL_Y112_H115Y_YF], the Screen [8] is reported as -4.49, the “Screen (variant relative to reference peptide, measured in the pTyr-Var library screen)” value [2] is reported as -2.336 and the Screen [3, 16] is reported as -0.9029. The Screen [4, 14] was -2.75.

Work on ITSLLYHVVGW [GBA_Y412_N409S] yielded a Screen [1, 11] of 0.08882, a Screen [2] of -0.08421 and a Screen [3, 12] of -0.2083. For the same molecule, the Screen [4, 13] was -0.3669.

In the case of “Ac-GNLLIYTELGK-NH2 [HGD_Y166_F169L, pTyr-Var library variant peptide, non-canonical c-Abl substrate]”, the Screen [2] is reported as 1.156, the Screen [3, 12] is reported as 1.177 and the “Phosphorylation Rate” value [6] is reported as 0.238 s⁻¹. For the same molecule, the Screen [4, 13] was -0.3242.

With HMEAVYIDIAD [PITPNA_Y140_V136M] the Screen [1, 11] was 1.696, the Screen [2] was 1.841 and the Screen [3, 12] was 1.927. For the same molecule, the Screen [4, 14] was 0.9488.

In the case of LHNLFYQLEAE [PKP2_Y616_S615F], the Screen [1, 11] is reported as 1.632, the Screen [3, 12] is reported as 1.672 and the Screen [4, 14] is reported as 4.082.

TLSGIYQFNIA [FOXL2_Y81_I84N_YF] was tested, and the Screen [1, 11] was -1.015, the Screen [2] was -4.223 and the Screen [3, 12] was -4.083. For the same molecule, the Screen [4, 13] was -0.3308.

With KMKGDYFCFLA [YWHAG_Y130_R132C_YF] the “Screen (variant relative to reference peptide, measured in the pTyr-Var library screen)” value [2] was 1.698, the Screen [3, 16] was 1.601 and the Screen [4, 14] was 0.4816.

With “Ac-IGEGTYRQVFK-NH2 [CDK13_Y716_G717R_YF, pTyr-Var library variant phosphosite peptide]” the Screen [4, 13] was -4.535 and the “Phosphorylation Rate” value [5] was 0.195 s⁻¹.

DNEALYDTCFR [TUBB2B_Y208_I210T] was tested, and the Screen [1, 15] was -0.2841, the “Screen (variant relative to reference peptide, measured in the pTyr-Var library screen)” value [2] was -0.7019 and the Screen [3, 16] was -0.7919. For the same molecule, the Screen [4, 14] was -0.1626.

In the case of CPSLLYSPVSS [CAMKK2_Y128_P127L], the Screen [1, 11] is reported as 2.071, the Screen [2] is reported as 3.226 and the Screen [3, 12] is reported as 2.723. For the same molecule, the Screen [4, 13] was 2.179.

B1: Abl Consensus peptide Ac-…-NH2 (peptide)
peptide: Ac-GPDEPIYAVPPIKKKG-NH2
B1 gave a KM (μM) of phosphorylation, Michaelis-Menten analysis, ADP-Quest assay [9] of 6 µM.

B2: fluorescently-labeled c-Src-SH2 consensus peptide FITC-Ahx-GDG(pY)EEISPLLL-NH2 (peptide)
peptide: {FITC-Ahx}-GDG[pY]EEISPLLL-NH2
SMILES: CC[C@H](C)[C@H](NC(=O)[C@H](CCC(=O)O)NC(=O)[C@H](CCC(=O)O)NC(=O)[C@H](Cc1ccc(OP(=O)(O)O)cc1)NC(=O)CNC(=O)[C@H](CC(=O)O)NC(=O)CNC(=O)CCCCCNC(=S)Nc1ccc2c(c1)C(=O)OC21c2ccc(O)cc2Oc2cc(O)ccc21)C(=O)N[C@@H](CO)C(=O)N1CCC[C@H]1C(=O)N[C@@H](CC(C)C)C(=O)N[C@@H](CC(C)C)C(=O)N[C@@H](CC(C)C)C(N)=O
notes: also called fluorescent peptide; source: gift from the Amacher lab (Western Washington University)
B2 was tested, and the Kd [10] was 160 nM.

— publication PMC10065799, “High-throughput profiling of sequence recognition by tyrosine kinases and SH2 domains using bacterial peptide display” (eLife, 2023)
